Results: patent US20070032529A1, “Pyrazole compounds and their use as antidiabetes agents” (Japan Tobacco Inc., priority 2005, published 2007)

How the values were obtained:
[1] = molecular target: T1, recombinant human liver glycogen phosphorylase (Homo sapiens, UniProt P06737); assay: Measuring liver glycogen phosphorylase activity (forward reaction system, NADPH absorbance at 340 nm); format: biochemical
T1 construct: made in house; host or cells: Sf9 insect cells (crude homogenate, diluted, used as the enzyme solution)
T1 sequence (P06737 1-847): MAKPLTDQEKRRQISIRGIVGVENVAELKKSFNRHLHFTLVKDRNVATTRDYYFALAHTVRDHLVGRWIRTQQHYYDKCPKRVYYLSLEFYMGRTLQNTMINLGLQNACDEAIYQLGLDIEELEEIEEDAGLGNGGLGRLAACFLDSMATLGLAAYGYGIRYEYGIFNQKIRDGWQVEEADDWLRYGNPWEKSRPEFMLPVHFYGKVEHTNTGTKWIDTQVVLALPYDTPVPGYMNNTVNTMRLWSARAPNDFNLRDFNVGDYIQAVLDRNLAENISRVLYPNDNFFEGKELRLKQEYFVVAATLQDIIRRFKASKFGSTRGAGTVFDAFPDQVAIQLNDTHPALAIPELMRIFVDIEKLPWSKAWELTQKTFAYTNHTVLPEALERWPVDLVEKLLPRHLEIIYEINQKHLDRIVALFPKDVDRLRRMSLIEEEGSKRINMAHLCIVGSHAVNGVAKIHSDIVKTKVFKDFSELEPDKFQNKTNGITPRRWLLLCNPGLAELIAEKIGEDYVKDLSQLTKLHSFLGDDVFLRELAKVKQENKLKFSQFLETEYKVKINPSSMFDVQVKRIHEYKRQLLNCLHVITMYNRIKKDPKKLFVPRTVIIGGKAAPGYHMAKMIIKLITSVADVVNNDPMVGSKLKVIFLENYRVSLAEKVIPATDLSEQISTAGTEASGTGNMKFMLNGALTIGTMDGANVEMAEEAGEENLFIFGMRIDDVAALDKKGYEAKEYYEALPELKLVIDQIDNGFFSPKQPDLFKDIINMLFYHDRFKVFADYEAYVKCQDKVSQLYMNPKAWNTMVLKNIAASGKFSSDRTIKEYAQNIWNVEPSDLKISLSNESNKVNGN
Procedure, shortened: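 Compounds in 1% DMSO; activity taken as blank-subtracted 340 nm absorbance change across 75 min at room temperature. Forward reaction: glucose-1-phosphate released from glycogen converted by coupling enzymes, yielding NADPH; enzyme from recombinant Sf9 homogenate, reaction containing glucose, pH 6.8. IC50 from two-point linear interpolation.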

db/db mice = assay: Measuring blood plasma glucose concentration in db/db mice (hypoglycemic effect); format: in vivo; set-up: key: ++: compounds exhibiting statistically significant hypoglycemic effect at a dose of 10 mg/kg or less; +: compounds exhibiting not significant but obvious hypoglycemic effect at a dose of 10 mg/kg; conditions: for vivo (hypoglycemic effect in db/db mice): db/db mice fasted 4 h, oral administration, plasma glucose 1 and 3 hours after administration, dose 10 mg/kg or less, Dunnett test vs solvent; for vivo (hypoglycemic effect): db/db mice, blood plasma glucose, dose of 10 mg/kg or less
Procedure, shortened: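 db/db mice aged 9-18 weeks, grouped 5 or 8 per group matched on plasma glucose, fasted 4 h, then dosed orally with compound or 0.5% methylcellulose vehicle. Plasma glucose measured 1 and 3 h post-dose; each timepoint compared against vehicle by Dunnett test.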

[2] = enzyme inhibitory activity with respect to liver glycogen phosphorylase, class symbols
[3] = human liver glycogen phosphorylase, class symbol

Row | SMILES | IC50 [1, 2] [nM] | vivo (hypoglycemic effect in db/db mice) (db/db mice) | other results
1 | O=C(O)c1cccc(CNC(=O)c2cc(NC(=O)c3cc(F)c(F)cc3Cl)[nH]n2)c1 [Example 3-39] | < 100 | + | –
2 | O=C(NCc1ccc(C(F)(F)F)nc1)c1cc(NC(=O)c2cc(F)c(F)cc2Cl)[nH]n1 [Example 3-40] | < 100 | ++ | –
3 | CCOc1ncccc1CNC(=O)c1cc(NC(=O)c2cc(F)c(F)cc2Cl)[nH]n1 [Example 3-41] | < 100 | ++ | –
4 | COc1ccnc(CNC(=O)c2cc(NC(=O)c3cc(F)c(F)cc3Cl)[nH]n2)c1 [Example 3-45] | < 100 | + | –
5 | COc1ccc(CNC(=O)c2cc(NC(=O)c3cc(F)c(F)cc3Cl)[nH]n2)c(OC)n1 [Example 3-46] | < 100 | + | –
6 | CN(C(=O)c1cc(NC(=O)c2cc(F)c(F)cc2Cl)[nH]n1)c1ccc(C(=O)O)cc1 [Example 4-2, 5-(2-chloro-4,5-difluoro-benzoylamino)-1H-pyrazole-3-carboxylic acid (4-carboxyphenyl)-methyl-amide] | < 100 | ++ | –
7 | CCOC(=O)CN(C(=O)c1cc(NC(=O)c2cc(F)c(F)cc2Cl)[nH]n1)c1ccccc1 [Example 4-4] | < 100 | + | –
8 | O=C(Nc1cc(C(=O)N(Cc2ccccc2)c2ccccc2)n[nH]1)c1cc(F)c(F)cc1Cl [Example 4-9] | < 100 | + | –
9 | CCOCCN(C(=O)c1cc(NC(=O)c2cc(F)c(F)cc2Cl)[nH]n1)c1ccccc1 [Example 4-18] | < 100 | + | –
10 | CCNC(=O)CN(C(=O)c1cc(NC(=O)c2cc(F)c(F)cc2Cl)[nH]n1)c1ccccc1 [Example 4-23] | < 100 | + | –
11 | COCCN(C(=O)c1cc(NC(=O)c2cc(F)c(F)cc2Cl)[nH]n1)c1ccccc1 [Example 4-34] | < 100 | + | –
12 | CCCCN(C(=O)c1cc(NC(=O)c2cc(F)c(F)cc2Cl)[nH]n1)c1ccc(C(=O)O)cc1 [Example 4-41] | < 100 | + | –
13 | CCCCN(C(=O)c1cc(NC(=O)c2cc(F)c(F)cc2Cl)[nH]n1)c1ccc(CC(=O)O)cc1 [Example 4-46] | < 100 | + | –
14 | COCCN(C(=O)c1cc(NC(=O)c2cc(F)c(F)cc2Cl)[nH]n1)c1ccc(C(=O)O)cc1 [Example 4-48] | < 100 | ++ | –
15 | COc1ccc(CNC(=O)c2cc(NC(=O)c3cc(F)c(F)cc3Cl)[nH]n2)cn1 [Example 5-1] | < 100 | – | vivo (hypoglycemic effect in db/db mice) (db/db mice; 10 mg/kg): +
16 | COc1ccc(CNC(=O)c2cc(NC(=O)c3cc(F)c(F)cc3C)[nH]n2)cn1 [Example 5-2] | < 100 | + | –
17 | O=C(NN1CCOCC1)c1cccc(CNC(=O)c2cc(NC(=O)c3cc(F)c(F)cc3Cl)[nH]n2)c1 [Example 5-12] | < 100 | + | –
18 | O=C(NCCN1CCOCC1)c1cc(CNC(=O)c2cc(NC(=O)c3cc(F)c(F)cc3Cl)[nH]n2)ccn1 [Example 5-13] | < 100 | + | –
19 | O=C(NCc1ccnc(C(=O)NN2CCOCC2)c1)c1cc(NC(=O)c2cc(F)c(F)cc2Cl)[nH]n1 [Example 5-14] | < 100 | + | –
20 | COc1ccc(CNC(=O)c2cc(NC(=O)c3cc(F)c(F)cc3Cl)[nH]n2)cn1.CS(=O)(=O)O [Example 5-15] | < 100 | + | –
21 | COc1ccc(CNC(=O)c2cc(NC(=O)c3cc(F)c(F)cc3Cl)[nH]n2)cn1 [Example 5-16] | < 100 | – | vivo (hypoglycemic effect in db/db mice) (db/db mice; 10 mg/kg): +

Row | SMILES | IC50 [1, 2] [nM] | vivo (hypoglycemic effect in db/db mice) (db/db mice) | other results
22 | O=C(NCc1ccc(N2CCCCC2)nc1)c1cc(NC(=O)c2cc(F)c(F)cc2Cl)[nH]n1 [Example 5-24] | < 100 | ++ | –
23 | Cl.O=C(NCc1ccc(N2CCOCC2)nc1)c1cc(NC(=O)c2cc(F)c(F)cc2Cl)[nH]n1 [Example 5-25] | < 100 | ++ | –
24 | CN(C)c1ccc(CNC(=O)c2cc(NC(=O)c3cc(F)c(F)cc3Cl)[nH]n2)cn1 [Example 5-27] | < 100 | – | vivo (hypoglycemic effect in db/db mice) (db/db mice; 10 mg/kg): ++
25 | CCN(CC)c1ccc(CNC(=O)c2cc(NC(=O)c3cc(F)c(F)cc3Cl)[nH]n2)cn1 [Example 5-29] | < 100 | ++ | –
26 | CN(C)c1nc(Cl)ccc1CNC(=O)c1cc(NC(=O)c2cc(F)c(F)cc2Cl)[nH]n1 [Example 5-30] | < 100 | + | –
27 | Cc1ncsc1CNC(=O)c1cc(NC(=O)c2cc(F)c(F)cc2Cl)[nH]n1.Cl [Example 5-32] | < 100 | + | –
28 | Cc1nc(C)c(CNC(=O)c2cc(NC(=O)c3cc(F)c(F)cc3Cl)[nH]n2)s1.Cl [Example 5-33] | < 100 | + | –
29 | Cc1cnc(CNC(=O)c2cc(NC(=O)c3cc(F)c(F)cc3Cl)[nH]n2)cn1 [Example 5-35] | < 100 | + | –
30 | O=C(NCc1ccc(N2CCCC2)nc1)c1cc(NC(=O)c2cc(F)c(F)cc2Cl)[nH]n1 [Example 5-41] | < 100 | + | –
31 | CN(C(=O)c1cc(NC(=O)c2cc(F)c(F)cc2Cl)[nH]n1)c1ccc(-c2nc(=O)o[nH]2)cc1 [Example 6-12] | – | – | IC50 [1, 3]: < 100 nM; vivo (hypoglycemic effect) (db/db mice): +
32 | CN(C(=O)c1cc(NC(=O)c2cc(F)c(F)cc2Cl)[nH]n1)c1ccc(-c2nsc(=O)[nH]2)cc1 [Example 6-16] | – | – | IC50 [1, 3]: < 100 nM; vivo (hypoglycemic effect) (db/db mice): +
33 | CC(OC(=O)OC1CCCCC1)OC(=O)c1ccc(N(C)C(=O)c2cc(NC(=O)c3cc(F)c(F)cc3Cl)[nH]n2)cc1 (stereo not drawn) [Example 6-17] | – | – | inhibition at 0.1 µM ([1]; figure in brackets (100), read-out: IC50: % value given with (100)): 9.8%; vivo (hypoglycemic effect) (db/db mice): +
34 | CN(C)C=Nc1ccccc1CNC(=O)c1cc(NC(=O)c2cc(F)c(F)cc2Cl)[nH]n1.Cl [Example 6-21] | – | – | IC50 [1, 3]: < 100 nM; vivo (hypoglycemic effect) (db/db mice): ++
35 | CN(C)C=Nc1cccc(CNC(=O)c2cc(NC(=O)c3cc(F)c(F)cc3Cl)[nH]n2)c1.Cl [Example 6-22] | – | – | IC50 [1, 3]: < 100 nM; vivo (hypoglycemic effect) (db/db mice): +
36 | CN(C)C=Nc1ccc(CNC(=O)c2cc(NC(=O)c3cc(F)c(F)cc3Cl)[nH]n2)cc1.Cl [Example 6-23] | – | – | IC50 [1, 3]: < 100 nM; vivo (hypoglycemic effect) (db/db mice): +
37 | N#Cc1ccc(CNC(=O)c2cc(NC(=O)c3cc(F)c(F)cc3Cl)[nH]n2)cc1 [Example 6-33] | – | – | IC50 [1, 3]: < 100 nM; vivo (hypoglycemic effect) (db/db mice): +
38 | Cl.Nc1cccc(F)c1CNC(=O)c1cc(NC(=O)c2cc(F)c(F)cc2Cl)[nH]n1 [Example 6-39] | – | – | IC50 [1, 3]: < 100 nM; vivo (hypoglycemic effect) (db/db mice): +
39 | N#Cc1cc(CNC(=O)c2cc(NC(=O)c3cc(F)c(F)cc3Cl)[nH]n2)ccn1 [Example 6-48] | – | – | IC50 [1, 3]: < 100 nM; vivo (hypoglycemic effect) (db/db mice): ++
40 | Cc1cc(F)c(F)cc1C(=O)Nc1cc(C(=O)N(C)c2ccc(C(=O)[O-])cc2)n[nH]1.[Na+] [Example 7-1] | – | – | IC50 [1, 3]: < 100 nM; vivo (hypoglycemic effect) (db/db mice): +
41 | O=C(NCc1cccnc1)c1cc(NC(=O)c2cc(F)c(Cl)cc2Cl)[nH]n1 [Example 7-4] | – | – | IC50 [1, 3]: < 100 nM; vivo (hypoglycemic effect) (db/db mice): ++
42 | Cc1cc(F)c(F)cc1C(=O)Nc1cc(C(=O)NCc2cccnc2)n[nH]1 [Example 7-10] | – | – | IC50 [1, 3]: < 100 nM; vivo (hypoglycemic effect) (db/db mice): ++
